These results are taken from US20230203040A1, “CRYSTALLINE FORMS OF A SULFONAMIDE COMPOUND AND PROCESSES FOR PREPARING THE SAME” (CRYSTAL PHARMATECH CO., LTD., priority 2020, published 2023).

In brackets after ≈: the same amount, converted by molar mass.

Common to all, as to assay type: physicochemical
The nature of data set [1]: Solubility of crystalline forms in FaSSIF, FeSSIF and pure water (saturated solutions, HPLC). Conditions: 37° C.; for Solubility in water: pure water. Here is the method:
The sample contents in saturated solutions were determined by high performance liquid chromatography (HPLC).

Data set [2] in a line: Hygroscopicity by dynamic vapor sorption (DVS). Conditions: 25° C.; for Weight gain at 80% RH: 80% relative humidity; for Weight gain at 95% RH: 95% relative humidity. On the procedure: The dynamic vapor sorption diagrams of the present invention were collected on Intrinsic-type and Intrinsic Plus-type dynamic vapor sorption instruments of SMS company. The process parameters of the dynamic vapor sorption test of the present invention were as follows: Temperature: 25° C. Protection gas and its flow rate: N2, 200 mL/minute dm/dt: 0.002%/minute Minimum dm/dt equilibration time: 10 minutes Maximum Equilibration Time: 180 minutes Relative humidity range: 0% RH-95% RH-0% RH Relative humidity gradient: 10% (0% RH-90% RH-0% RH), 5% (90% RH-95% RH and 95% RH-90% RH). Each about 10 mg of Crystalline Form of the present invention and Crystalline Form A of WO2020/008391A was weighed for dynamic vapor sorption (DVS) test, and then sampled to measure XRPD. The experimental results were shown in Table 21, and the dynamic vapor sorption diagrams of Crystalline Forms A and E were shown in FIGS. 22-23 respectively.

A short description of data set [3]: Compressibility of crystalline forms (manual tableting, hardness and tensile strength). Conditions: for hardness (radial crushing force) / Tensile strength: tablet pressed at 10 KN; for hardness (radial crushing force): 24 hours in dryer; for Tensile strength: T=2H/πDL. Here is the method:
A manual tableting machine was used to perform the tableting. […] 10 KN pressure was applied to suppress into cylindrical tablets, which were placed in a dryer for 24 hours. After the complete elastic restoration, the tablets were tested with a tablet hardness meter for its radial crushing force (hardness, H). Diameter (D) and thickness (L) of the tablets were measured with a Vernier caliper, and the tensile strength of the powder under different hardness was calculated using the formula T=2H/πDL. Under a certain pressure, the higher the tensile strength was, the better the compressibility was.

The nature of data set [4]: Intrinsic dissolution rate. Conditions: pH 6.8 Phosphate Buffer, 37° C., paddle 100 rpm, sheet 0.5 cm^2. Here is the method:
The intrinsic dissolution rate data of the present invention were collected on an Agilent 708DS-type dissolution apparatus of the Agilent company. The intrinsic dissolution test conditions were as follows.
An intact pressed sheet was transferred to the dissolution apparatus for testing the intrinsic dissolution rate, and the slope was calculated according to the measurement points between 10 and 30 minutes, expressed in mg/mL, and the intrinsic dissolution rate (IDR) was further calculated according to the slope, expressed in mg/min/cm^2. The dissolution rate of Crystalline Form E of the present invention was faster than that of Crystalline Form A of the prior art.

For `CCCS(=O)(=O)N[C@H]1C[C@@H](N(C)c2ncnc3[nH]ccc23)C1` [Crystalline Form A, reference compound], in data set [1] (equilibrated 1 hour), the “Solubility in FaSSIF” value is 72.3 µg/mL (≈ 224 µM), the “Solubility in FeSSIF” value amounted to 9.4 µg/mL (≈ 29.1 µM) and the Solubility in water stood at 64.3 µg/mL (≈ 199 µM). For the same compound, in data set [1] (equilibrated 2 hours), the “Solubility in FaSSIF” value came out at 78 µg/mL (≈ 241 µM), the “Solubility in FeSSIF” value was 9.4 µg/mL (≈ 29.1 µM) and the Solubility in water came to 74.7 µg/mL (≈ 231 µM). In data set [1] (equilibrated 4 hours), the “Solubility in FaSSIF” value amounted to 76.1 µg/mL (≈ 235 µM), the “Solubility in FeSSIF” value worked out at 9.6 µg/mL (≈ 29.7 µM) and the Solubility in water stood at 72.3 µg/mL (≈ 224 µM). For the same compound, in data set [2], the “Weight gain at 80% RH” value is listed as 0.09% and the “Weight gain at 95% RH” value came to 0.27%. Further, in data set [3], the “hardness (radial crushing force)” value stood at 17.01 N and the Tensile strength worked out at 1.805 MPa.
With `CCCS(=O)(=O)N[C@H]1C[C@@H](N(C)c2ncnc3[nH]ccc23)C1` [Crystalline Form E], the “dissolution rate (intrinsic) compared with Crystalline Form A” value in data set [4] is on record as “faster”. Also, the “solubility in FaSSIF, FeSSIF and pure water compared with Crystalline Form A” value in data set [1] is on record as “higher”. In data set [1] (equilibrated 1 hour), the “Solubility in FaSSIF” value came out at 153.8 µg/mL (≈ 476 µM), the “Solubility in FeSSIF” value was found to be 38.4 µg/mL (≈ 119 µM) and the Solubility in water came to 114.7 µg/mL (≈ 355 µM). In data set [1] (equilibrated 2 hours), the “Solubility in FaSSIF” value amounted to 164.5 µg/mL (≈ 509 µM), the “Solubility in FeSSIF” value is 39.2 µg/mL (≈ 121 µM) and the Solubility in water came to 138.6 µg/mL (≈ 429 µM). In addition, in data set [1] (equilibrated 4 hours), the “Solubility in FaSSIF” value worked out at 169.4 µg/mL (≈ 524 µM), the “Solubility in FeSSIF” value is 44.1 µg/mL (≈ 136 µM) and the Solubility in water came to 156.2 µg/mL (≈ 483 µM). For the same compound, in data set [2], the “Weight gain at 80% RH” value is 0.11% and the “Weight gain at 95% RH” value is 0.19%. Further, in data set [3] (10 KN), the “tensile strength and compressibility compared with Crystalline Form A” value is “higher tensile strength and better compressibility”. Further, in data set [3], the “hardness (radial crushing force)” value is given as 17.20 N and the Tensile strength turned out to be 2.607 MPa.
Consider `CCCS(=O)(=O)N[C@H]1C[C@@H](N(C)c2ncnc3[nH]ccc23)C1` [Crystalline Form F], for which, in data set [1] (equilibrated 1 hour), the “Solubility in FaSSIF” value is 189 µg/mL (≈ 584 µM), the “Solubility in FeSSIF” value was found to be 51.6 µg/mL (≈ 160 µM) and the Solubility in water was 179.6 µg/mL (≈ 555 µM). Besides, in data set [1] (equilibrated 2 hours), the “Solubility in FaSSIF” value turned out to be 203.5 µg/mL (≈ 629 µM), the “Solubility in FeSSIF” value is 54.9 µg/mL (≈ 170 µM) and the Solubility in water was found to be 189.2 µg/mL (≈ 585 µM). Besides, in data set [1] (equilibrated 4 hours), the “Solubility in FaSSIF” value came out at 214.2 µg/mL (≈ 662 µM), the “Solubility in FeSSIF” value is 59.2 µg/mL (≈ 183 µM) and the Solubility in water stood at 203 µg/mL (≈ 628 µM).
